Measured values taken from ChEMBL document CHEMBL1130957, “Functional characteristics of a series of N4-substituted 1-(2,3-dihydro-1,4-benzodioxin-5-yl)piperazines as 5-HT1A receptor ligands. Structure-activity relationships” (Bioorg Med Chem Lett, 1998).

Assays:
[1] = biological target: T1, 5-hydroxytryptamine receptor 1A (Homo sapiens) (UniProt P08908); experiment: Agonistic efficacy in adenylyl cyclase assay in CHO cells expressing human 5-HT1A receptor (experiment 2); type: functional, cell-based
T1 sequence (whole entry): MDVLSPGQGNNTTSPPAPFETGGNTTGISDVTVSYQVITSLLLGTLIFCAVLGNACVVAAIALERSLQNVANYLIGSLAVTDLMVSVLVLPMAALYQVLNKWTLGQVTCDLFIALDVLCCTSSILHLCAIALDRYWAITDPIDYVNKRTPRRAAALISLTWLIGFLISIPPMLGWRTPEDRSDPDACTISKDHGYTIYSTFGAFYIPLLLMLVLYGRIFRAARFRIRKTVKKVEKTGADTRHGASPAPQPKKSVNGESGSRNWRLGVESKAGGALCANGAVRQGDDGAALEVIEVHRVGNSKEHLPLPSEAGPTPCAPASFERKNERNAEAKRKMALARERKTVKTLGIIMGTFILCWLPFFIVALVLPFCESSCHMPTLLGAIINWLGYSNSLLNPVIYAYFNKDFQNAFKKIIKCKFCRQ

[2] = biological target: T1, 5-hydroxytryptamine receptor 1A (Homo sapiens); experiment: Antagonistic efficacy as adenylyl cyclase assay in CHO cells expressing human 5-HT1A receptor (experiment 1); type: functional, cell-based
[3] = biological target: T1, 5-hydroxytryptamine receptor 1A (Homo sapiens); experiment: Antagonistic efficacy as adenylyl cyclase assay in CHO cells expressing human 5-HT1A receptor (experiment 2); type: functional, cell-based
[4] = biological target: T2, 5-hydroxytryptamine receptor 1A (Homo sapiens, UniProt P08908); experiment: Compound was tested for its potency against 5-hydroxytryptamine 1A receptor expressed in CHO cells (experiment 2); type: functional, cell-based
T2 sequence (P08908 whole entry): T1 sequence (whole entry)

[5] = biological target: T2, 5-hydroxytryptamine receptor 1A; experiment: Potency against human 5-hydroxytryptamine 1A receptor expressed in CHO cells (experiment 1); type: functional, cell-based
[6] = biological target: T1, 5-hydroxytryptamine receptor 1A (Homo sapiens); experiment: Agonistic efficacy as adenylyl cyclase assay in CHO cells expressing human 5-HT1A receptor (experiment 1); type: functional, cell-based
[7] = biological target: T3, 5-hydroxytryptamine receptor 1A (Rattus norvegicus, UniProt P19327)
T3 sequence (P19327 whole entry): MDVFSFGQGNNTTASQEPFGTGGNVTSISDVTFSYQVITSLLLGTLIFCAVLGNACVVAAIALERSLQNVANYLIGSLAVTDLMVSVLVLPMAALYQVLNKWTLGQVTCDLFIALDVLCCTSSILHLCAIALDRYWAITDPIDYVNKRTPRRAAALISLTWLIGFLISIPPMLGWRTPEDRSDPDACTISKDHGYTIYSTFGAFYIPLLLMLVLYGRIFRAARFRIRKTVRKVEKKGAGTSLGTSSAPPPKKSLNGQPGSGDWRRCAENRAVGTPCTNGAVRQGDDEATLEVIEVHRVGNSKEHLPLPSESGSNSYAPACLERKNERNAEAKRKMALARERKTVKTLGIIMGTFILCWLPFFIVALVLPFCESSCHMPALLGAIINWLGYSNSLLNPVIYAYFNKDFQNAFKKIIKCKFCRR
Description: Inhibition of [3H]8-OH-DPAT binding to 5-hydroxytryptamine 1A receptor of rat frontal cortex membranes

[8] = biological target: T3, 5-hydroxytryptamine receptor 1A; experiment: (§1) Compound was tested for its potency against 5-hydroxytryptamine 1A receptor in rat frontal cortex membranes (experiment 2); type: functional, cell membranes, Membrane; details: read-out: pA2 (converted)
[9] = biological target: T2, 5-hydroxytryptamine receptor 1A; experiment: Compound was tested for its potency against human 5-hydroxytryptamine 1A receptor expressed in CHO cells (experiment 2); type: functional, cell-based
[10] = biological target: T1, 5-hydroxytryptamine receptor 1A (Homo sapiens); experiment: Agonistic efficacy was evaluated by adenylyl cyclase assay in CHO cells stably expressing the human 5-HT1A receptor (experiment 2); type: functional, cell-based
[11] = biological target: T1, 5-hydroxytryptamine receptor 1A (Homo sapiens); experiment: Antagonistic efficacy was evaluated by adenylyl cyclase assay in CHO cells stably expressing the human 5-HT1A receptor (experiment 1); type: functional, cell-based
[12] = biological target: T1, 5-hydroxytryptamine receptor 1A (Homo sapiens); experiment: Antagonistic efficacy was evaluated by adenylyl cyclase assay in CHO cells stably expressing the human 5-HT1A receptor (experiment 2); type: functional, cell-based
[13] = biological target: T1, 5-hydroxytryptamine receptor 1A (Homo sapiens); experiment: Antagonistic efficacy was evaluated by adenylyl cyclase assay in CHO cells stably expressing the human 5-HT1A receptor; type: functional, cell-based
[14] = biological target: T2, 5-hydroxytryptamine receptor 1A
[15] = biological target: T3, 5-hydroxytryptamine receptor 1A; experiment: as §1; type: cell membranes, Membrane; details: read-out: pA2 (converted)
[16] = biological target: T3, 5-hydroxytryptamine receptor 1A; experiment: Compound was tested for its potency against 5-hydroxytryptamine 1A receptor in rat frontal cortex membranes (experiment 1); type: cell membranes, Membrane; details: read-out: pA2 (converted)

Compound	Efficacy [1] [%]	Efficacy [2] [%]	Efficacy [3] [%]	EC50 [4] [nM]	EC50 [5] [nM]	Efficacy [6] [%]	Ki [7] [nM]	Kb [8] [nM]	EC50 [9] [nM]	Efficacy [10] [%]	Efficacy [11] [%]	Efficacy [12] [%]	Kb [15] [nM]	Kb [16] [nM]	Efficacy [13] [%]	EC50 [14] [nM]
O=C1c2ccccc2S(=O)(=O)N1CCN1CCN(c2cccc3c2OCCO3)CC1	86	0	0	631	251	97	1.23	–	–	–	–	–	–	–	–	–
O=C1c2ccccc2S(=O)(=O)N1CCCCN1CCN(c2cc(Cl)cc3c2OCCO3)CC1 [DU 125530]	0	100	100	–	–	0	0.708	0.288	–	–	–	–	–	–	–	–
O=C(NCCN1CCN(c2cccc3c2OCCO3)CC1)c1ccc(F)cc1	97	0	0	–	0.955	97	0.295	–	0.851	–	–	–	–	–	–	–
O=C1c2ccccc2S(=O)(=O)N1CCCCN1CCN(c2cccc3c2OCCO3)CC1	23	68	65	–	–	11	0.288	0.363	–	–	–	–	–	–	–	–
O=C1c2ccccc2S(=O)(=O)N1CCCCN1CCN(c2ncccn2)CC1 [IPSAPIRONE]	–	–	–	–	–	–	–	–	–	–	–	–	–	–	0	67.6
O=C(NCCN1CCN(c2cccc3c2OCC(CO)O3)CC1)c1ccc(F)cc1 (single isomer, unassigned) [FLESINOXAN]	–	–	–	–	–	–	–	–	–	–	–	–	–	–	0	6.61
O=C1c2ccccc2C(=O)N1CCCCN1CCN(c2cccc3c2OCCO3)CC1	49	55	62	–	1.35	44	0.229	–	5.75	–	–	–	0.676	0.661	–	–
O=C1c2ccccc2C(=O)N1CCN1CCN(c2cccc3c2OCCO3)CC1	30	0	2	–	–	0	31.6	–	–	–	–	–	–	–	–	–
O=C(CCCN1CCN(c2cccc3c2OCCO3)CC1)c1ccc(F)cc1	48	22	42	–	5.25	50	1.35	–	7.41	–	–	–	–	–	–	–

Now from value to molecule, other results behind:

Efficacy [1] [%]	Efficacy [2] [%]	Efficacy [3] [%]	EC50 [4] [nM]	EC50 [5] [nM]	Efficacy [6] [%]	Ki [7] [nM]	Kb [8] [nM]	EC50 [9] [nM]	Efficacy [10] [%]	Efficacy [11] [%]	Efficacy [12] [%]	Kb [15] [nM]	Kb [16] [nM]	Compound	Efficacy [13] [%]	EC50 [14] [nM]
–	–	–	–	2.88	71	–	–	2.82	67	33	18	–	–	O=C(CCCN1CCN(c2cccc3c2OCCO3)CC1)c1ccccc1	–	–
50	74	70	–	6.76	45	–	–	6.03	–	–	–	25.1	–	c1ccc(CCCCN2CCN(c3cccc4c3OCCO4)CC2)cc1	–	–
85	17	0	–	12.6	81	1.05	–	31.6	–	–	–	–	–	O=C(NCCCCN1CCN(c2cccc3c2OCCO3)CC1)c1ccc(F)cc1	–	–
